Data from ChEMBL document CHEMBL5316298, “Discovery of Amphiphilic Xanthohumol Derivatives as Membrane-Targeting Antimicrobials against Methicillin-Resistant Staphylococcus aureus” (J Med Chem, 2023).
Activity calls are given as the source filed them. No cut-off for these calls is given here.

Columns and labels:
Staphylococcus aureus [1] = assay: Antibacterial activity against methicillin-resistant Staphylococcus aureus clinical isolate 2 incubated for 16 to 18 hrs by CLSI-based microbroth dilution method; assay type: functional; settings: time 16-18 hrs
Staphylococcus aureus [2] = assay: Antibacterial activity against methicillin-resistant Staphylococcus aureus clinical isolate 5 incubated for 16 to 18 hrs by CLSI-based microbroth dilution method; assay type: functional; settings: time 16-18 hrs
Staphylococcus aureus [3] = assay: Antibacterial activity against methicillin-resistant Staphylococcus aureus clinical isolate 6 incubated for 16 to 18 hrs by CLSI-based microbroth dilution method; assay type: functional; settings: time 16-18 hrs
Staphylococcus aureus [4] = assay: Antibacterial activity against methicillin-resistant Staphylococcus aureus clinical isolate 7 incubated for 16 to 18 hrs by CLSI-based microbroth dilution method; assay type: functional; settings: time 16-18 hrs
Staphylococcus aureus [5] = assay: Bactericidal activity against methicillin-resistant Staphylococcus aureus 3 at 4 times MIC by plate colony counting method; assay type: functional, organism-based; settings: time 0-8 hrs, TDE = time-dependent effect
Cell membrane [6] = assay: Disruption of membrane integrity in methicillin-resistant Staphylococcus aureus 3 assessed as appearance of ruptured cell surface at 16 ug/ml incubated for 240 mins by SEM analysis; assay type: subcellular; settings: dose 16.0 µg/ml
Cell membrane [7] = assay: Disruption of membrane integrity in methicillin-resistant Staphylococcus aureus 3 assessed as appearance of uneven cell surface at 16 ug/ml incubated for 240 mins by SEM analysis; assay type: subcellular; settings: dose 16.0 µg/ml
Cell membrane [8] = assay: Induction of membrane depolarization in methicillin-resistant Staphylococcus aureus 3 assessed as increase in fluorescence intensity at 8 to 16 ug/ml measured every 2 mins for 20 mins by DiSC35 dye-based fluorescence assay; assay type: subcellular; settings: dose 8-16 µg/ml
Cell membrane [9] = assay: Induction of membrane depolarization in methicillin-resistant Staphylococcus aureus 3 assessed as increase in fluorescence intensity measured every 2 mins for 20 mins by SYTOX-green dye based fluorescence assay; assay type: subcellular; settings: dose 8-32 µg/ml
Cell membrane [10] = assay: Disruption of membrane integrity in methicillin-resistant Staphylococcus aureus 3 assessed as increase in red fluorescence of PI incubated for 2 hrs by SYTO 9/PI staining based flow cytometry analysis; assay type: subcellular; settings: dose 4-64 µg/ml
Staphylococcus aureus [11] = assay: Anti-MRSA activity against methicillin-resistant Staphylococcus aureus 3 incubated for 16 to 18 hrs in presence of 64 ug/ml phosphatidylglycerol by checkerboard broth dilution method (reference value: 1 ug/ml); assay type: functional; settings: time 16-18 hrs
Staphylococcus aureus [12] = assay: Anti-MRSA activity against methicillin-resistant Staphylococcus aureus 3 incubated for 16 to 18 hrs in presence of 0 to 64 ug/ml peptidoglycan by checkerboard broth dilution method; assay type: functional, organism-based; settings: time 16-18 hrs
Staphylococcus aureus [13] = assay: Induction of ROS production in methicillin-resistant Staphylococcus aureus 3 assessed as increase in intracellular ROS level incubated for 40 mins by DCFH-DA dye based fluorescence analysis; assay type: functional, organism-based; settings: dose 0-64 µg/ml
Staphylococcus aureus [14] = assay: Induction of ROS production in methicillin-resistant Staphylococcus aureus 3 assessed as fold increase in intracellular ROS level at 64 ug/ml incubated for 40 mins by DCFH-DA dye based fluorescence analysis relative to control; assay type: functional
L02 = assay: Cytotoxicity against human L02 cells assessed as reduction in cell viability at 64 ug/ml incubated for 24 hrs by CCK-8 assay; assay type: toxicity, cell-based; settings: l02, 24 h, dose 64 µg/ml
[15] = Toxicity in KM mouse assessed as swelling in skin at 40 to 80 mg/kg, sc administered into middle dorsum and measured after 24 hrs; assay type: organism-based; settings: in vivo, dose 40-80 mg/kg
[16] = Toxicity in KM mouse assessed as effect on hemoglobin level at 20 mg/kg, sc administered into middle dorsum and measured after 24 hrs by routine blood test; assay type: organism-based; settings: in vivo
[17] = Toxicity in KM mouse assessed as effect on hematocrit level at 20 mg/kg, sc administered into middle dorsum and measured after 24 hrs by routine blood test; assay type: organism-based; settings: in vivo
[18] = Toxicity in KM mouse assessed as effect on platelet count at 20 mg/kg, sc administered into middle dorsum and measured after 24 hrs by routine blood test; assay type: organism-based; settings: in vivo
[19] = Toxicity in KM mouse assessed as effect on urea level at 20 mg/kg, sc administered into middle dorsum and measured after 24 hrs by routine blood test; assay type: organism-based; settings: in vivo
[20] = Toxicity in KM mouse assessed as effect on creatinine level at 20 mg/kg, sc administered into middle dorsum and measured after 24 hrs by routine blood test; assay type: organism-based; settings: in vivo
[21] = Toxicity in KM mouse assessed as pathological changes in heart at 20 mg/kg, sc administered into middle dorsum and measured after 24 hrs by H and E staining based analysis; assay type: organism-based; settings: in vivo
[22] = Toxicity in KM mouse assessed as pathological changes in spleen at 20 mg/kg, sc administered into middle dorsum and measured after 24 hrs by H and E staining based analysis; assay type: organism-based; settings: in vivo
Staphylococcus aureus [23] = assay: Antibacterial activity against methicillin-resistant Staphylococcus aureus 3 infected in KM mouse assessed as reduction in bacterial load at infection site at 5 mg/kg administered into skin infection site measured after 24 hrs relative to control; assay type: functional; set-up: scale not given: the % may be the effect or the level left
Staphylococcus aureus [24] = assay: Antibacterial activity against methicillin-resistant Staphylococcus aureus 3 infected in KM mouse assessed as reduction in bacterial load at infection site by measuring colony forming units at 5 mg/kg administered into skin infection site measured after 24 hrs; assay type: functional
Staphylococcus aureus [25] = assay: Antibacterial activity against methicillin-resistant Staphylococcus aureus 3 infected in KM mouse assessed as reduction in abscesses on dorsal surface of skin at 5 mg/kg administered into skin infection site measured after 24 hrs; assay type: functional, organism-based
Staphylococcus aureus [26] = assay: Antibacterial activity against methicillin-resistant Staphylococcus aureus 3 infected in KM mouse assessed as reduction in size of abscesses at 5 mg/kg administered into skin infection site measured after 24 hrs; assay type: functional, organism-based
[27] = Toxicity in KM mouse infected with methicillin-resistant Staphylococcus aureus 3 assessed as heart damage at 5 to 10 mg/kg administered into skin infection site measured after 24 hrs by H and E staining based analysis; assay type: organism-based; settings: in vivo, topical_or_ocular, dose 5-10 mg/kg
[28] = Toxicity in KM mouse infected with methicillin-resistant Staphylococcus aureus 3 assessed as liver damage at 5 to 10 mg/kg administered into skin infection site measured after 24 hrs by H and E staining based analysis; assay type: organism-based; settings: in vivo, topical_or_ocular, dose 5-10 mg/kg
[29] = Toxicity in KM mouse infected with methicillin-resistant Staphylococcus aureus 3 assessed as spleen damage at 5 to 10 mg/kg administered into skin infection site measured after 24 hrs by H and E staining based analysis; assay type: organism-based; settings: in vivo, topical_or_ocular, dose 5-10 mg/kg
[30] = Toxicity in KM mouse infected with methicillin-resistant Staphylococcus aureus 3 assessed as lung damage at 5 to 10 mg/kg administered into skin infection site measured after 24 hrs by H and E staining based analysis; assay type: organism-based; settings: in vivo, topical_or_ocular, dose 5-10 mg/kg
[31] = Toxicity in KM mouse infected with methicillin-resistant Staphylococcus aureus 3 assessed as multifocal enlargement of hepatocytes with cytoplasmic foamy swelling at 5 to 10 mg/kg administered into skin infection site measured after 24 hrs by H and E staining based analysis; assay type: organism-based; settings: in vivo, topical_or_ocular, dose 5-10 mg/kg
[32] = Toxicity in KM mouse infected with methicillin-resistant Staphylococcus aureus 3 assessed as swelling of renal tubular epithelial cells with granular degeneration at 5 to 10 mg/kg administered into skin infection site measured after 24 hrs by H and E staining based analysis; assay type: organism-based; settings: in vivo, topical_or_ocular, dose 5-10 mg/kg
[33] = Toxicity in KM mouse infected with methicillin-resistant Staphylococcus aureus 3 assessed as vacuolar degeneration in the kidneys at 5 to 10 mg/kg administered into skin infection site measured after 24 hrs by H and E staining based analysis; assay type: organism-based; settings: in vivo, topical_or_ocular, dose 5-10 mg/kg

## CCCN(CCC)C(=O)C[N+](C)(C)CCCCOc1ccc(/C=C/C(=O)c2c(OC)cc3c(c2O)C=CC(C)(C)O3)cc1.[Br-]
Staphylococcus aureus [1]
  MIC: 2 mg/L
Staphylococcus aureus [2]
  MIC: 1 mg/L
Staphylococcus aureus [3]
  MIC: 1 mg/L
Staphylococcus aureus [4]
  MIC: 2 mg/L
Staphylococcus aureus [5]
  Activity: Tde
Cell membrane [6]
  Activity: Active
Cell membrane [7]
  Activity: Active
Cell membrane [8]
  Activity: Active
Cell membrane [9]
  Activity: Dose-Dependent Effect
Cell membrane [10]
  Activity: Dose-Dependent Effect
Staphylococcus aureus [11]
  MIC: 32 mg/L
Staphylococcus aureus [12]
  Activity: Active
Staphylococcus aureus [13]
  Activity: Active
Staphylococcus aureus [14]; dose 64 µg/ml
  fold change (FC): 7
Staphylococcus aureus [14]; dose 64.0 µg/ml
  Activity: Active
L02
  Activity: Non-Toxic
[15]
  Activity: Toxic
[16]
  Activity: Non-Toxic
[17]
  Activity: Non-Toxic
[18]
  Activity: Non-Toxic
[19]
  Activity: Non-Toxic
[20]
  Activity: Non-Toxic
[21]
  Activity: Non-Toxic
[22]
  Activity: Non-Toxic
Staphylococcus aureus [23]
  Activity: 99.905%
Staphylococcus aureus [24]
  Activity: 3 log10CFU/g
Staphylococcus aureus [25]
  Activity: inactive
Staphylococcus aureus [26]
  Activity: Active
[27]
  Activity: Non-Toxic
[28]
  Activity: Non-Toxic
[29]
  Activity: Non-Toxic
[30]
  Activity: Non-Toxic
[31]
  Activity: Non-Toxic
[32]
  Activity: Non-Toxic
[33]
  Activity: Non-Toxic
